US10940139B2, “Compounds that interact with the Ras superfamily for the treatment of cancers, inflammatory diseases, rasopathies, and fibrotic disease” (Shy Therapeutics LLC, priority 2017, dated 2021)

What was measured:
[1] = molecular target: KRas G12D/Q61H double mutant (Homo sapiens (Human), UniProt P01116, G12D/Q61H); assay: Ras GTP binding domain inhibition assay (labeled GTP); details: at 20 μM; read-out: KRas G12D Q61H % Inh.
In short: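 Labelled-GTP binding: plate-captured His-KRas protein was pre-exposed to compound for 3 h at room temperature (single 20 μM point or dilution series, 1% DMSO, Tris pH 7.5/MgCl2/DTT buffer). Cy3- or Cy5-GTP was then added for 45 min. Washed wells were read for retained fluorescence to give inhibition or IC50.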

Rho-A = Rho-A (Homo sapiens (Human), UniProt P61586); assay: Rho inhibition assay (labeled GTP); type: binding; details: read-out: Rho-A % Inh.
Rac-1 = Rac-1 (Homo sapiens (Human), UniProt P63000); assay: Rac inhibition assay (labeled GTP); type: binding; details: read-out: Rac-1 % Inh.
KRas G12D mutant protein = KRas G12D mutant protein (Homo sapiens (Human), UniProt P01116, G12D); assay: Ras GTP binding domain inhibition assay (labeled GTP); details: at 20 μM; read-out: KRas G12D % Inh.
Experimental: The following method was developed as specific assay for KRas G12D mutant protein.
Buffer-I: • 50 mM Tris, pH 7.5 • 150 mM NaCl (optional) • 1 mM MgCl2 • 1 mM DTT. • KRas G12D mutant protein was expressed as a His-tagged protein. Purified His-KRas G12D protein was diluted in buffer-I to a final concentration of 3-10 μg/ml. • 200 μl of the diluted His-KRas G12D protein was added to a nickel coated 96 well plate and incubated overnight at 4° C. • The next day, wells were washed 3× in 200 μl of Buffer-I. • Then 200 μl of Buffer-I were added to each well in the presence of 1% DMSO. • Tested compounds were added to the protein-coated wells at a concentration of 20 μM, and incubated for 3 hours at room temperature. While performing IC50 measurements a serial dilution of all tested concentrations was prepared.
Then 22 μl of Cy3-GTP or Cy5-GTP was added to each well. The labeled GTP was incubated for 45 min. at room temperature. • Following GTP incubation, wells were washed 3× in Buffer-I, and 200 μl of Buffer-I were added to each well. • Following washes, the amount of bound labeled-GTP was measured with an Eppendorf AF2200 plate reader.

Sequence of Rho-A (P61586 whole entry): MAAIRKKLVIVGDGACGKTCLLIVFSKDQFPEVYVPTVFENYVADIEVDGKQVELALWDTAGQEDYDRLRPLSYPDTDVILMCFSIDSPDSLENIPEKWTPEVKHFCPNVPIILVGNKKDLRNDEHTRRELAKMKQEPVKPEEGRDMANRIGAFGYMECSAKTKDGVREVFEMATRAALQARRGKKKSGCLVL
Sequence of KRas G12D mutant protein (P01116-2 other isoform, or with tags, fused parts or gaps G12D): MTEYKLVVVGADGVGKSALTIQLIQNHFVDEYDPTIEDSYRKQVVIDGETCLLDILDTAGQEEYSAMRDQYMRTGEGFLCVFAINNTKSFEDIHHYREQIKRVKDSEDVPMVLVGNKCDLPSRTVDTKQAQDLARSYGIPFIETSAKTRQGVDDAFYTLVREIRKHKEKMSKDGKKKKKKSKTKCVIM
Sequence of KRas G12D/Q61H double mutant (P01116-2 other isoform, or with tags, fused parts or gaps G12D/Q61H): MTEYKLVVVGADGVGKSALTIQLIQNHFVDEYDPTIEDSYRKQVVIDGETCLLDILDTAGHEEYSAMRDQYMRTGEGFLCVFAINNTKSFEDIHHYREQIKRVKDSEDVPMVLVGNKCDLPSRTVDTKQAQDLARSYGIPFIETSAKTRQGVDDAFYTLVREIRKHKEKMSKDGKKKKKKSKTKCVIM

SMILES | inhibition at 20 µM [1] [%] | inhibition at 20 µM (Rho-A) [%] | inhibition at 20 µM (Rac-1) [%] | inhibition at 20 µM (KRas G12D mutant protein) [%]
Nc1nc(O)c2sc(-c3cccc(C(=O)NC4CCNC4=O)c3)cc2n1 (stereo not drawn) [drawing 3860] | 1 to 25 | 1 to 25 | 1 to 25 | –
Nc1nc(O)c2sc(-c3cccc(C(=O)N4CCC(O)C4)c3)cc2n1 (stereo not drawn) [drawing 3861] | 1 to 25 | 1 to 25 | 1 to 25 | –
NC(=O)C1CCCN1C(=O)c1cccc(-c2cc3nc(N)nc(O)c3s2)c1 (stereo not drawn) [drawing 3862] | 0 | 0 | 0 | –
Nc1nc(O)c2sc(-c3cccc(C(=O)NCc4ncc[nH]4)c3)cc2n1 [drawing 3863] | 0 | 0 | 0 | –
Nc1nc(O)c2sc(-c3cccc(C(=O)NCc4cccc(O)n4)c3)cc2n1 [drawing 3864] | 0 | 0 | 1 to 25 | –
COC(=O)c1nc(-c2ccccn2)nc(O)c1O [drawing 3865] | 51 to 75 | 76 to 100 | 76 to 100 | –
Oc1nc(-c2ccccn2)nc2c(-c3ccccc3)c(-c3ccncc3)sc12 [drawing 3866] | 0 | 51 to 75 | 76 to 100 | –
Cn1cnc(-c2nc(O)c3sc(-c4ccncc4)c(-c4ccccc4)c3n2)c1 [drawing 3867] | 0 | 25 to 50 | 1 to 25 | –
COCC(C)Nc1nc(-c2ccccn2)nc(C(=O)NCCCc2c[nH]cn2)c1Oc1ccccc1 (stereo not drawn) [drawing 3868] | 1 to 25 | 25 to 50 | 25 to 50 | –
Nc1nc(-c2ccccn2)nc(C(=O)NCCc2ccncc2)c1Oc1ccccc1 [drawing 3869] | 25 to 50 | 25 to 50 | 51 to 75 | –
COc1nc(-c2ccccn2)nc(Oc2cccc(C(F)(F)F)c2)c1OC [drawing 3870] | 1 to 25 | 0 | 1 to 25 | –
Oc1nc(-c2ccccn2)nc2c(Br)c(-c3ccccc3)sc12 [drawing 3871] | 0 | 1 to 25 | 25 to 50 | –
CC(C)(C)c1sc2c(O)nc(-c3ccccn3)nc2c1Br [drawing 3872] | 25 to 50 | 25 to 50 | 25 to 50 | –
Cc1ccc(-c2cc3nc(-c4ccccn4)nc(O)c3s2)cc1 [drawing 3873] | 0 | 0 | 1 to 25 | –
Oc1nc(-c2ccccn2)nc2cc(-c3ccccc3Cl)sc12 [drawing 3874] | 1 to 25 | 51 to 75 | 51 to 75 | –
Oc1nc(-c2ccccn2)nc2cc(-c3ccc(-c4ccccc4)cc3)sc12 [drawing 3877] | 1 to 25 | 1 to 25 | 0 | –
Cc1ccc(-c2csc3c(O)nc(-c4ccccn4)nc23)cc1 [drawing 3878] | 1 to 25 | 25 to 50 | 0 | –
COc1ccc(-c2cc3nc(-c4ccccn4)nc(O)c3s2)cc1 [drawing 3881] | 1 to 25 | 1 to 25 | 0 | –
Oc1nc(-c2ccccn2)nc2cc(-c3cccc(Br)c3)sc12 [drawing 3882] | 25 to 50 | 25 to 50 | 1 to 25 | –
COc1nc(-c2ccccn2)nc(Oc2cccc(C(F)(F)F)c2)c1O [drawing 3883] | – | 1 to 25 | 76 to 100 | 51 to 75
COCCN(C)c1nc(-c2nccn2C)nc2sc(-c3ccccc3)c(-c3ccccc3)c12 [drawing 3884] | – | 25 to 50 | 25 to 50 | 51 to 75
CC(C)OCCNc1nc(-c2nccn2C)nc2sc(-c3ccccc3)c(-c3ccccc3)c12 [drawing 3885] | – | 25 to 50 | 25 to 50 | 51 to 75
Cn1ccnc1-c1nc(NCCOC(F)(F)F)c2c(-c3ccccc3)c(-c3ccccc3)sc2n1 [drawing 3886] | – | 25 to 50 | 25 to 50 | 25 to 50

SMILES | inhibition at 20 µM [1] [%] | inhibition at 20 µM (Rho-A) [%] | inhibition at 20 µM (Rac-1) [%] | inhibition at 20 µM (KRas G12D mutant protein) [%]
CC(O)CNc1nc(-c2nccn2C)nc2sc(-c3ccccc3)c(-c3ccccc3)c12 (stereo not drawn) [drawing 3887] | – | 25 to 50 | 25 to 50 | 1 to 25
COCCCNc1nc(-c2nccn2C)nc2sc(-c3ccccc3)c(-c3ccccc3)c12 [drawing 3888] | – | 51 to 75 | 25 to 50 | 51 to 75
COC1CCN(c2nc(-c3nccn3C)nc3sc(-c4ccccc4)c(-c4ccccc4)c23)C1 (stereo not drawn) [drawing 3889] | – | 0 | 25 to 50 | 51 to 75
CCOCCOc1nc(-c2nccn2C)nc2sc(-c3ccccc3)c(-c3ccccc3)c12 [drawing 3890] | – | 25 to 50 | 1 to 25 | 1 to 25
CCN(CC)CCOc1nc(-c2nccn2C)nc2sc(-c3ccccc3)c(-c3ccccc3)c12 [drawing 3891] | – | 1 to 25 | 1 to 25 | 25 to 50
COCCNc1nc(-c2ccncn2)nc2sc(-c3ccccc3)c(-c3ccccc3)c12 [drawing 3892] | – | 1 to 25 | 1 to 25 | 0
CCOCCNc1nc(-c2nccn2C)nc2sc(-c3ccccc3)c(-c3ccccc3)c12 [drawing 3893] | – | 51 to 75 | 51 to 75 | 51 to 75
Cn1ccnc1-c1nc(NCCOC2CC2)c2c(-c3ccccc3)c(-c3ccccc3)sc2n1 [drawing 3894] | – | 1 to 25 | 25 to 50 | 1 to 25
COCC(C)Nc1nc(-c2nccn2C)nc2sc(-c3ccccc3)c(-c3ccccc3)c12 (stereo not drawn) [drawing 3895] | – | 1 to 25 | 1 to 25 | 1 to 25
CC(CO)Nc1nc(-c2nccn2C)nc2sc(-c3ccccc3)c(-c3ccccc3)c12 (stereo not drawn) [drawing 3896] | – | 1 to 25 | 1 to 25 | 1 to 25
Cn1ccnc1-c1nc(NCCCO)c2c(-c3ccccc3)c(-c3ccccc3)sc2n1 [drawing 3897] | – | 51 to 75 | 51 to 75 | 51 to 75
COCCNc1nc(-c2nccn2C)nc2sc(-c3ccccc3)c(-c3ccccc3Cl)c12 [drawing 3898] | – | 25 to 50 | 25 to 50 | 25 to 50
COCCNc1nc(-c2nccn2C)nc2sc(-c3ccccc3Cl)c(-c3ccccc3)c12 [drawing 3899] | – | 25 to 50 | 0 | 1 to 25
COCCNc1nc(-c2nccn2C)nc2sc(-c3ccncc3)c(-c3ccccc3)c12 [drawing 3900] | – | 51 to 75 | 51 to 75 | 51 to 75
COCCNc1nc(-c2cn(C)cn2)nc2sc(-c3ccccc3)c(-c3ccccc3)c12 [drawing 3901] | – | 51 to 75 | 51 to 75 | 25 to 50
COCCNc1nc(-c2nccn2C)nc2sc(C)c(-c3ccccc3)c12 [drawing 3902] | – | 51 to 75 | 51 to 75 | 51 to 75
COCCNc1nc(-c2cn(C)cn2)nc2sc(C)c(-c3ccccc3)c12 [drawing 3903] | – | 51 to 75 | 51 to 75 | 25 to 50
COCCNc1nc(-c2nccn2C)nc2sc(-c3cccc(OC)c3)c(-c3ccccc3)c12 [drawing 3904] | – | 51 to 75 | 1 to 25 | 25 to 50
CC(C)COc1ccc(-c2c(-c3ccccc3)sc3c(O)nc(-c4nccn4C)nc23)cn1 [drawing 3905] | – | 51 to 75 | 51 to 75 | 51 to 75
Cn1ccnc1-c1nc(O)c2sc(-c3ccccc3)c(-c3ccccc3)c2n1 [drawing 3906] | – | 1 to 25 | 0 | 0
COCCNc1nc(-c2nccn2C)nc2sc(-c3ccccc3)c(-c3ccc(OC)cc3)c12 [drawing 3907] | – | 51 to 75 | 51 to 75 | 25 to 50
COCCNc1nc(-c2nccn2C)nc2sc(C3CCOCC3)c(-c3ccccc3)c12 [drawing 3908] | – | 51 to 75 | 76 to 100 | 51 to 75
COCCNc1nc(-c2cccc(N)n2)nc2sc(-c3ccccc3)c(-c3ccccc3)c12 [drawing 3909] | – | 0 | 0 | 0
